Among the data in patent US20080194546A1, “Pyrido-, Pyrazo- and Pyrimido-Pyrimidine Derivatives as mTOR Inhibitors” (KuDOS Pharmaceuticals Limited, priority 2005, published 2008) are IC50 values, retold here.

As usually defined, the IC50 is the midpoint of a concentration-inhibition curve.

The subject of the first test is phosphorylation of Serine 473 in Akt in MDA-MB-468 cells. The test is described as follows: In Vitro phospho-Ser473 Akt Assay (Acumen Explorer). Conditions: Homo sapiens, MDA-MB-468, read-out: IC50 values against mTOR (phospho-Ser473 Akt assay). It counts as cell-based.
In the case of `COCCNc1nc(N2CCOC[C@@H]2C)c2ccc(-c3ccc(OC)c(CO)c3)nc2n1` [Example 28by], the concentration for half-maximal inhibition (IC50) was less than 11 µM.

Regarding `COc1ccc(-c2ccc3c(N4CCOC[C@@H]4C)nc(NCCN(C)C)nc3n2)cc1CO` [Example 28cb], the IC50 is less than 11 µM. Consider `COc1ccc(-c2ccc3c(N4CCOC[C@@H]4C)nc(N4CCN(CCO)CC4)nc3n2)cc1CO` [Example 28ci], for which the 50% inhibitory concentration (IC50) was less than 0.3 µM. On the same count and under the same terms, then `COc1ccc(-c2ccc3c(N4CCOC[C@@H]4C)nc(NC(C)CN(C)C)nc3n2)cc1CO` (some centres unmarked) [Example 28ct], with less than 11 µM; and `CCOc1nc(N2CCOC[C@@H]2C)c2ccc(-c3ccc(OC)c(CO)c3)nc2n1` [Example 28cv], with less than 11 µM.

`C[C@H]1CCCCN1c1nc(N2CCOC[C@@H]2C)c2ccc(-c3ccc(Cl)cc3)nc2n1` [Example 28de]: the IC50 was less than 11 µM. In the case of `C[C@@H]1CCCCN1c1nc(N2CCOC[C@@H]2C)c2ccc(-c3ccc(Cl)cc3)nc2n1` [Example 28dg], the IC50 is less than 11 µM. In the case of `C[C@H]1COCCN1c1nc(N2CCC(C(N)=O)CC2)nc2nc(-c3ccc(Cl)cc3)ccc12` [Example 28dj], the IC50 is less than 11 µM. Take `COc1ccc(-c2ccc3c(N4CCOC[C@@H]4C)nc(N4CCCC(c5ccccc5)C4)nc3n2)cc1CO` (some centres unmarked) [Example 28j]: the IC50 is less than 11 µM. Still for that read-out and setting: then `COc1ccc(-c2ccc3c(N4CCOC[C@@H]4C)nc(Nc4ccncn4)nc3n2)cc1CO` [Example 28n], with less than 11 µM; and `COc1ccc(-c2ccc3c(N4CCOC[C@@H]4C)nc(Nc4cccnc4)nc3n2)cc1CO` [Example 28o], with less than 11 µM; and `COc1ccc(-c2ccc3c(N4CCOC[C@@H]4C)nc(N4CCC(N5CCCCC5)CC4)nc3n2)cc1CO` [Example 28z], with less than 11 µM. On the same count and under the same terms, the value for `COc1ccc(-c2ccc3c(N4CCOC[C@@H]4C)nc(-c4cccc(CN)c4)nc3n2)cc1CO` [Example 29e] was less than 11 µM; that for `COC(=O)c1cccc(-c2nc(N3CCOC[C@@H]3C)c3ccc(-c4ccc(OC)c(CO)c4)nc3n2)c1` [Example 29h] was less than 11 µM. Same read-out and setting: the value for `COc1ccc(-c2ccc3c(N4CCOC[C@@H]4C)nc(-c4cccc([N+](=O)[O-])c4)nc3n2)cc1CO` [Example 29i] was less than 11 µM; that for `COCc1cccc(-c2nc(N3CCOC[C@@H]3C)c3ccc(-c4ccc(OC)c(CO)c4)nc3n2)c1` [Example 29l] was less than 11 µM. As to `COc1ccc(-c2ccc3c(N4CCOC[C@@H]4C)nc(-c4cccc(C(F)(F)F)c4)nc3n2)cc1CO` [Example 29m], the 50% inhibitory concentration (IC50) is less than 11 µM. Still for that read-out and setting: then `COc1ccc(-c2ccc3c(N4CCOC[C@@H]4C)nc(-c4cccc(C)c4)nc3n2)cc1CO` [Example 29n], with less than 11 µM; and `COc1cccc(-c2nc(N3CCOC[C@@H]3C)c3ccc(-c4ccc(OC)c(CO)c4)nc3n2)c1` [Example 29o], with less than 11 µM.

For `C[C@H]1COCCN1c1nc(-c2ccncc2)nc2nc(-c3cccc(CO)c3)ccc12` [Example 29q], the IC50 is less than 11 µM. Still for that read-out and setting: then `COc1cncc(-c2nc(N3CCOC[C@@H]3C)c3ccc(-c4cccc(CO)c4)nc3n2)c1` [Example 29s], with less than 11 µM; and `C[C@H]1COCCN1c1nc(-c2cccnc2F)nc2nc(-c3cccc(CO)c3)ccc12` [Example 29u], with less than 11 µM; and `C[C@H]1COCCN1c1nc(-c2cnn(C)c2)nc2nc(-c3cccc(CO)c3)ccc12` [Example 29v], with less than 11 µM. For `Cc1nn(C)c(C)c1-c1nc(N2CCOC[C@@H]2C)c2ccc(-c3cccc(CO)c3)nc2n1` [Example 29w], the half-maximal inhibitory concentration (IC50) is less than 11 µM.

The test is the same for the next values; noted with them: Homo sapiens; MDA-MB-468 cells, 2 hours; read-out: IC50, phospho-Ser473 Akt assay (cellular IC50, measured by pAkt).
As for `CNC(=O)C1CCN(c2nc(N3CCOC[C@@H]3C)c3ccc(-c4ccc(N)nc4)nc3n2)CC1` [Example 28dk], the half-inhibitory concentration (IC50) was found to be 0.682 µM. Still for that read-out and setting: the value for `C[C@H]1COCCN1c1nc(N2CCOCC2)nc2nc(-c3ccc(N)nc3)ccc12` [Example 28dl] was 0.295 µM.
